Among the data in PubChem BioAssay (NCI) are TGI values, retold here.

Assay in all cases: growth of human tumour cells (NCI), 48 h
The subject of assay [1] is SK-MEL-2 melanoma.
Assay [2] has as its system MOLT-4 leukemia.
Assay [3] concerns SF-268 CNS.
In assay [4] the test system is HCC-2998 colon.
The test system of assay [5] is NCI-H23 lung.
In assay [6] the test system is RPMI-8226 leukemia.
Assay [7] has as its system OVCAR-3 ovarian.
Assay [8] concerns UACC-62 melanoma.
Assay [9] concerns MDA-MB-435.
Assay [10] deals with HOP-62 NSCLC.

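In this assay, cells in 96-well plates receive the compound at five concentrations for 48 hours. Endpoints are linearly interpolated between the surrounding concentrations. Definition used: TGI = concentration required for complete inhibition of growth.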

As for `Cc1cccc(N/C(Sc2ccccc2)=C(/C(Cl)=C(Cl)Cl)[N+](=O)[O-])c1`, the TGI in assay [1] is more than 100 µM; in assay [2], more than 100 µM; in assay [3], 34.2 µM; in assay [4], more than 100 µM; in assay [5] it was 37 µM; in assay [6] it was more than 100 µM. Moreover, the TGI amounted to 21.6 µM in assay [7], 54.6 µM in assay [8], 34 µM in assay [9] and 40.1 µM in assay [10].

For `COC(=O)/C=C1/OC(c2ccc(OC)cc2)=C(Cl)C1=O`, the TGI was determined as 33.6 µM in [1]; 12.3 µM in assay [2]; 36.8 µM in assay [3]; 41.1 µM in assay [4]; 34.9 µM in assay [5]; 13.6 µM in assay [6]. In addition, the TGI in assay [7] was 26.3 µM; in [8], 37.9 µM; in assay [9], 30.4 µM; in [10], 39.2 µM.

With `CC(=O)N(C(C)=O)c1cc2c3c(c1)CCCN3CCC2`, the TGI in assay [1], in assay [2], in assay [3], in assay [4], in [5] and in assay [6] was more than 10 µM in each case. Further, the TGI in assay [7], in assay [8], in assay [9] and in assay [10] was more than 10 µM throughout.

For the compound `Cc1cnc2sn(-c3ccc(Br)cc3)c(=O)c2c1`, the TGI in [1], in [2], in assay [3], in assay [4], in assay [5] and in assay [6] was more than 100 µM throughout. The TGI in assay [7] is 62.7 µM; in assay [8] it was more than 100 µM; in assay [9], more than 100 µM; in assay [10], 81.5 µM.

In the case of `O=C(N/N=C(/COc1ccccc1)N=Cc1cccnc1)c1ccncc1`, the TGI in assay [1], in assay [2], in [3], in assay [4], in assay [5] and in [6] was more than 100 µM in each case. Besides, the TGI in assay [7], in assay [8], in assay [9] and in assay [10] was more than 100 µM each time.

`COc1cccc(C2c3cc4c(cc3OC(Nc3ccccc3)C2C)OCO4)c1OC` (stereo not given): the TGI is more than 100 µM in assay [1]; 17.9 µM in assay [2]; more than 100 µM in assay [3]; more than 100 µM in assay [4]; more than 100 µM in [5]; 17.8 µM in [6]. In addition, the TGI in assay [7], in assay [8], in assay [9] and in assay [10] was more than 100 µM each time.

As for `CCOC(=O)c1nnc2c(C#N)c(-c3ccccc3)c(C)n2c1N`, the TGI in assay [1] is more than 100 µM; in assay [2], more than 100 µM; in [3], more than 100 µM; in assay [4] it was more than 100 µM; in assay [5], more than 100 µM; in [6] it was 53.9 µM. For the same compound, the TGI was more than 100 µM in assay [7], 66.6 µM in assay [8], more than 100 µM in [9] and more than 100 µM in [10].

Regarding `CC(=O)OC(Cc1c(O)c2c(C)cccc2oc1=O)C(C)(C)O` (stereo not given), the TGI in assay [1], in [2], in assay [3], in assay [4], in [5] and in [6] was more than 100 µM each time. The TGI in assay [7], in assay [8], in assay [9] and in assay [10] was more than 100 µM throughout.

On to `ON=C(CC(O)(C(F)(F)Cl)C(F)(F)Cl)CC(O)(C(F)(F)Cl)C(F)(F)Cl`, for which the TGI is 7.84 µM in [1]; more than 10 µM in [2]; more than 10 µM in [3]; more than 10 µM in [4]; more than 10 µM in [5]; more than 10 µM in assay [6]. The TGI was more than 10 µM in [7], more than 10 µM in assay [8], more than 10 µM in [9] and 9.78 µM in [10].

For `COc1ccc(-c2c(C#N)c(S)n(NS(=O)(=O)c3ccccc3)c(=O)c2C#N)cc1`, the TGI in assay [1] is more than 100 µM; in assay [2] it was more than 100 µM; in assay [3], more than 100 µM; in assay [4] it was more than 100 µM; in assay [5] it was more than 100 µM; in assay [6] it was 98.4 µM. The TGI in assay [7], in assay [8], in assay [9] and in assay [10] was more than 100 µM each time.

As for `COc1ccc(/C=C2\C[C@H]3[C@@H]4CCC5=CC(=O)CC[C@]5(C)[C@H]4CC[C@]3(C)C2=O)cc1OC`, the TGI in assay [1] is 43.6 µM; in assay [2], 44.6 µM; in assay [3], more than 100 µM; in [4], more than 100 µM; in assay [5], more than 100 µM; in assay [6], 47.3 µM. Also, the TGI in [7], in [8], in assay [9] and in [10] was more than 100 µM throughout.
